Data published in patent US11453697B1, “Cyclic di-nucleotide compounds as sting agonists” (Merck Sharp & Dohme Corp., priority 2015, dated 2022).

What follows are compounds tested on IFN-β secretion in THP1 cells (assay: IFN-β secretion in THP1 cell culture (5 h)). Details: not given.
Format: cell-based, human
Method: The ability of compounds to stimulate the secretion of interferon-beta from THP1 cells was measured using a human IFN-β AlphaLISA kit (Perkin Elmer, Cat. No. AL265F). The basic protocol is as follows:
The cell viability and count was ascertained using a Beckman Coulter V-Cell XR cell counter. The cells suspension was centrifuged at 200×g for 5 min at RT. […] Subsequent liquid transfers were performed using either a Matrix electronic multichannel pipette or an Agilent Bravo Automated Liquid Handling Platform.
The assay was started by dispensing 40 μL of the previously prepared cell suspension into the wells of the plate containing compounds. After 5 h incubation at 37° C., 5% CO2 in a humidified atmosphere, the plate of cells and compounds was centrifuged at 200×g for 5 min at RT. […] To these supernatant-containing wells was added 10 μL of 5× Anti-Analyte Acceptor beads (50 μg/mL of AlphaLISA HiBlock Buffer) and incubated for 30 min at RT while shaking on an orbital plate shaker. To each well was added 10 μL of 5× Biotinylated Antibody Anti-analyte (5 nM in AlphaLISA HiBlock Buffer) and incubated on an orbital plate shaker for 60 min at RT or overnight at 4° C. To each well was added 25 μL of 2× SA-Donor beads (80 μg/mL in AlphaLISA HiBlock Buffer) and incubated for 30-45 min at RT in the dark while shaking on an orbital plate shaker. The plate was then read on a Perkin Elmer Envision (λex=680 nm, λem=[…]). The percent effect of the AlphaLISA signal at each compound concentration was calculated based on 30 uM cGAMP positive controls and 0.3% DMSO negative controls. The plot of percent effect versus the log of compound concentration was fit with a 4-parameter concentration response equation to calculate EC50 values.
Compounds of the disclosure were evaluated for IFN-β secretion in THP1 cell culture as described above.

Structure (SMILES)	% Effect at 30 μM relative to 2′3′-cGAMP
Nc1nc2c(ncn2[C@@H]2O[C@@H]3COP(=O)(S)O[C@H]4[C@H](F)[C@H](n5cnc6c(N)ncnc65)O[C@@H]4COP(=O)(S)O[C@@H]2[C@H]3F)c(=O)[nH]1 (single isomer, unassigned) [Example 145]	141%

Same assay, conditions: IFN-β secretion in THP1 cell culture, 5 h; compound at 30 μM; percent activation relative to 2′3′-cGAMP

Structure (SMILES)	% Effect at 30 μM relative to 2′3′-cGAMP
Nc1nc2c(ncn2[C@@H]2O[C@@H]3COP(=O)(S)OC4[C@@H](COP(=O)(S)O[C@H]2C3O)O[C@@H](n2cnc3c(N)ncnc32)[C@H]4F)c(=O)[nH]1 (single isomer, unassigned) [Example 82]	111%
Nc1nc2c(ncn2[C@@H]2O[C@@H]3COP(=O)(S)OC4[C@@H](COP(=O)(S)O[C@H]2C3O)O[C@@H](n2cnc3c(N)ncnc32)[C@H]4F)c(=O)[nH]1 (single isomer, unassigned) [Example 83]	133%
Nc1nc2c(ncn2[C@@H]2O[C@@H]3COP(=O)(S)OC4C(O)[C@H](n5cnc6c(N)ncnc65)O[C@@H]4COP(=O)(S)OC2C3)c(=O)[nH]1 (single isomer, unassigned) [Example 87]	99%
Nc1nc2c(ncn2[C@@H]2O[C@@H]3COP(=O)(S)OC4C(O)[C@H](n5cnc6c(N)ncnc65)O[C@@H]4COP(=O)(S)OC2C3)c(=O)[nH]1 (single isomer, unassigned) [Example 88]	54%
Nc1nc2c(ncn2[C@@H]2O[C@@H]3CO[P@@](=O)(S)OC4[C@@H](CO[P@@](=O)(S)O[C@H]2C3O)O[C@@H](n2cnc3c(N)ncnc32)[C@H]4F)c(=O)[nH]1 (single isomer, unassigned) [Example 89]	119%
Nc1nc2c(ncn2[C@@H]2O[C@@H]3COP(=O)(S)OC4[C@@H](COP(=O)(S)OC2C3O)O[C@@H](n2cnc3c(N)ncnc32)[C@H]4F)c(=O)[nH]1 (single isomer, unassigned) [Example 90]	117%
Nc1nc2c(ncn2[C@@H]2O[C@@H]3COP(=O)(S)OC4[C@@H](COP(=O)(S)OC2C3O)O[C@@H](n2cnc3c(N)ncnc32)[C@H]4F)c(=O)[nH]1 (single isomer, unassigned) [Example 91]	106%
Nc1nc2c(ncn2[C@@H]2O[C@@H]3COP(=O)(S)OC4[C@@H](COP(=O)(S)OC2C3O)O[C@@H](n2cnc3c(N)ncnc32)[C@H]4F)c(=O)[nH]1 (single isomer, unassigned) [Example 92]	62%
Nc1nc2c(ncn2[C@@H]2O[C@@H]3COP(=O)(S)OC4C5OC[C@]4(COP(=O)(S)OC2C3O)O[C@H]5n2cnc3c(N)ncnc32)c(=O)[nH]1 (single isomer, unassigned) [Example 94]	138%
Nc1nc2c(ncn2[C@@H]2O[C@@H]3COP(=O)(S)OC4C5OC[C@]4(COP(=O)(S)OC2C3O)O[C@H]5n2cnc3c(N)ncnc32)c(=O)[nH]1 (single isomer, unassigned) [Example 95]	118%
Nc1nc2c(ncn2[C@@H]2O[C@@H]3CO[P@@](=O)(S)O[C@H]4[C@H](F)[C@H](n5cnc6c(N)ncnc65)O[C@@H]4CO[P@@](=O)(S)O[C@@H]2[C@H]3F)c(=O)[nH]1 (single isomer, unassigned) [Example 144]	114%
Nc1nc2c(ncn2[C@@H]2O[C@@H]3COP(=O)(S)O[C@H]4[C@H](F)[C@H](n5cnc6c(N)ncnc65)O[C@@H]4COP(=O)(S)O[C@@H]2[C@H]3F)c(=O)[nH]1 (single isomer, unassigned) [Example 146]	59%
Nc1nc2c(ncn2[C@@H]2O[C@@H]3COP(O)(=S)O[C@H]4[C@H](F)[C@H](n5cnc6c(N)ncnc65)O[C@@H]4COP(O)(=S)O[C@@H]2[C@@H]3F)c(=O)[nH]1 (single isomer, unassigned) [Example 244]	96%
Nc1nc2c(ncn2[C@@H]2O[C@@H]3COP(O)(=S)O[C@H]4[C@H](F)[C@H](n5cnc6c(N)ncnc65)O[C@@H]4COP(O)(=S)O[C@@H]2[C@@H]3F)c(=O)[nH]1 (single isomer, unassigned) [Example 245]	234%
